Test results from ChEMBL document CHEMBL1201862, “PubChem BioAssay data set” (2004).
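Dose response: 5 concentrations. Exposure: 48 h. Format: 96-well plates. Endpoint: linear interpolation; highest concentration if not reached. GI50 marks 50% less growth.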 The source made the active and inactive calls. Cut-off read from the data, not from the text of the source: active = GI50 up to about 1.1 µM and inactive = higher.

What was measured:
Test in all cases: growth of human tumour cells (NCI), 48 h
Hs-578T = system: Hs-578T
MDA-MB-435 = system: MDA-MB-435
ACHN = system: ACHN
TK-10 = system: TK-10
PC-3 = system: PC-3
M14 = system: M14
CAKI-1 = system: CAKI-1
DLD-1 = system: DLD-1
UO-31 = system: UO-31
SN12C = system: SN12C
LOX IMVI = system: LOX IMVI
M19-MEL = system: M19-MEL
SK-MEL-5 = system: SK-MEL-5
SNB-78 = system: SNB-78
DMS-114 = system: DMS-114
Malme-3M = system: Malme-3M
HOP-18 = system: HOP-18
XF498 = system: XF498
A498 = system: A498
DMS-273 = system: DMS-273

Measured: GI50

O=C1OC(c2ccccc2)=N/C1=C/c1cccs1
inactive: Hs-578T 87.1 µM | MDA-MB-435 > 100 µM | ACHN > 100 µM | TK-10 > 100 µM | PC-3 > 100 µM | M14 > 100 µM

CCCCCCc1cn([C@H]2C[C@H](O)[C@@H](CO)O2)c(=O)[nH]c1=O
inactive: CAKI-1 > 100 µM | DLD-1 > 100 µM | UO-31 > 100 µM | SN12C > 100 µM | LOX IMVI > 100 µM | M19-MEL > 100 µM | SK-MEL-5 > 100 µM | SNB-78 > 100 µM | DMS-114 > 100 µM | Malme-3M > 100 µM | HOP-18 > 100 µM | XF498 > 100 µM | A498 > 100 µM | DMS-273 > 100 µM
